Where a name gives a salt, the structure may show the parent alone. Read-outs that look alike come from different tables or passages of the source. Bounds are passed on as bounds.

This is an account of results in US20240383852A1, “ANTI-VIRAL COMPOUNDS” (INFEX Therapeutics Limited, priority 2021, published 2024).

Series [1] concerns human Hep G2 cells (ATCC HB-8065). The series is described as follows: Cytotoxicity in Hep G2 cells (CellTiter-Glo). It counts as cell-based.
The target of the next series is T1, SARS-CoV-2 PLpro (Severe acute respiratory syndrome coronavirus 2, UniProt P0DTD1).
T1 construct: containing 60 nM papain-like protease
Put plainly: biochemical.

Setting [2] is: Hep G2 cells, 100 μM test article, 24-hour exposure.
[3] abbreviates: 60 nM papain-like protease, 50 μM Z-RLRGG-AMC, pH 7.5, 37° C., read-out: SARS-CoV-2 PLpro IC50.

`Cc1ccc(N2CCN(C)CC2)cc1C(=O)N[C@H](C)c1cccc(C(=O)NCC(N)=O)c1` [Example 310, N-[(1R)-1-[3-[(2-Amino-2-oxo-ethyl)carbamoyl]phenyl]ethyl]-2-methyl-5-(4-methylpiperazin-1-yl)benzamide hydrochloride salt]: in series [1] (setting [2]), the “% Cell Viability” value came out at 124.4%. Also, the IC50 on SARS-CoV-2 PLpro (setting [3]) was under 5 µM.

Take `Cc1ccc([C@@H](C)NC(=O)c2cc(N3CCN(C)CC3)ccc2C)cc1Br` [Example 196, N-[(1R)-1-(3-Bromo-4-methyl-phenyl)ethyl]-2-methyl-5-(4-methylpiperazin-1-yl)benzamide]: in series [1] (setting [2]), the “% Cell Viability” value worked out at 4.7%. In addition, the IC50 on SARS-CoV-2 PLpro (setting [3]) is under 2 µM.

Turning to `C[C@@H](NC(=O)c1cc(C2=CCN(C)CC2)ccc1Cl)c1cccc2ccccc12` [Example 144, 2-Chloro-5-(1-methyl-3,6-dihydro-2H-pyridin-4-yl)-N-[(1R)-1-(1-naphthyl)ethyl]benzamide], the “% Cell Viability” value in series [1] (human, 24 h, 100 μM) is on record as 1.6%. The compound further yielded an IC50 at SARS-CoV-2 PLpro of under 10 µM.

`COc1ccc([C@@H](C)NC(=O)c2cc(N3CCCN(C)CC3)ccc2C)cc1OC` [Example 13, N-[(1R)-1-(3,4-Dimethoxyphenyl)ethyl]-2-methyl-5-(4-methyl-1,4-diazepan-1-yl)benzamide]: the “% Cell Viability” value in series [1] (setting [2]) turned out to be 103.8%. For the same compound, the IC50 at SARS-CoV-2 PLpro (setting [3]) is under 10 µM.

With `Cc1ccc(N2CCN(C)CC2)cc1C(=O)N[C@H](C)c1cc(F)cc(Br)c1` [Example 197, N-[(1R)-1-(3-Bromo-5-fluoro-phenyl)ethyl]-2-methyl-5-(4-methylpiperazin-1-yl)benzamide], in series [1] (setting [2]), the “% Cell Viability” value was determined as 44.7%. Besides, the IC50 at SARS-CoV-2 PLpro (setting [3]) was under 2 µM.

For the compound `COc1cc(-c2cn(C)nc2C)cc([C@@H](C)NC(=O)c2cc(N3CCNC4(CC4)C3)ccc2C)c1` [Example 267, 5-(4,7-Diazaspiro[2.5]octan-7-yl)-N-[(1R)-1-[3-(1,3-dimethylpyrazol-4-yl)-5-methoxy-phenyl]ethyl]-2-methyl-benzamide], the “% Cell Viability” value in series [1] (setting [2]) came out at 81.0%. Besides, the IC50 at SARS-CoV-2 PLpro (setting [3]) was under 2 µM.

Take `COC(=O)CCN1CCN(c2cccc(C(=O)N[C@H](C)c3cccc4ccccc34)c2)CC1` [Example 160, Methyl 3-[4-[3-[[(1R)-1-(1-naphthyl)ethyl]carbamoyl]phenyl]piperazin-1-yl]propanoate]: in series [1] (setting [2]), the “% Cell Viability” value came out at 101.8%. The IC50 at SARS-CoV-2 PLpro (setting [3]) was under 100 µM.

As for `Cc1ccc(N2CCN(C)CC2)cc1C(=O)N[C@H](C)c1cccc(N2CC(CO)OC2=O)c1` (stereo partly drawn) [Example 107, N-[(1R)-1-[3-[5-(Hydroxymethyl)-2-oxo-oxazolidin-3-yl]phenyl]ethyl]-2-methyl-5-(4-methylpiperazin-1-yl)benzamide], in series [1] (setting [2]), the “% Cell Viability” value is reported as 100.7%. In addition, the IC50 on SARS-CoV-2 PLpro (setting [3]) is under 5 µM.

For the compound `Cc1ccc(C2=CCNCC2)cc1C(=O)N[C@H](C)c1cccc2ccccc12` [Example 154, 2-Methyl-N-[(1R)-1-(1-naphthyl)ethyl]-5-(1,2,3,6-tetrahydropyridin-4-yl)benzamide], the “% Cell Viability” value in series [1] (human, 24 h, 100 μM) was found to be 2.1%. Further, the IC50 at SARS-CoV-2 PLpro is under 2 µM.

`Cc1ccc(N2CCN(C)CC2)cc1C(=O)N[C@H](C)c1cncc(-c2ccccc2)c1` [Example 223, 2-Methyl-5-(4-methylpiperazin-1-yl)-N-[(1R)-1-(5-phenyl-3-pyridyl)ethyl]benzamide]: the “% Cell Viability” value in series [1] (setting [2]) came to 59.8%. For the same compound, on SARS-CoV-2 PLpro (setting [3]), the IC50 is under 2 µM.

With `Cc1ccc(N2CCN(C)CC2)cc1C(=O)N[C@H](C)c1cccc(-c2cccc(C(=O)N3CC[C@H](O)C3)c2)c1` [Example 95, N-[(1R)-1-[3-[3-[(3S)-3-Hydroxypyrrolidine-1-carbonyl]phenyl]phenyl]ethyl]-2-methyl-5-(4-methylpiperazin-1-yl)benzamide], in series [1] (setting [2]), the “% Cell Viability” value was 88.5%. The 50% inhibitory concentration (IC50) on SARS-CoV-2 PLpro (setting [3]) was under 2 µM.

As for `Cc1ccc(N2CCN(C)CC2)cc1C(=O)N[C@H](C)c1cccc(Br)c1` [Example 22, N-[(1R)-1-(3-Bromophenyl)ethyl]-2-methyl-5-(4-methylpiperazin-1-yl)benzamide], in series [1] (setting [2]), the “% Cell Viability” value worked out at 65.5%. Also, the IC50 on SARS-CoV-2 PLpro (setting [3]) was under 5 µM.

As to `COc1ccc([C@@H](C)NC(=O)c2cc(N3CCN(C)CC3)ccc2C)cc1-c1cnn(C(F)F)c1` [Example 208, N-[(1R)-1-[3-[1-(Difluoromethyl)pyrazol-4-yl]-4-methoxy-phenyl]ethyl]-2-methyl-5-(4-methylpiperazin-1-yl)benzamide], in series [1] (setting [2]), the “% Cell Viability” value was determined as 87.8%. Also, the IC50 on SARS-CoV-2 PLpro (setting [3]) was under 2 µM.

For the compound `Cc1ccc(N2CCN(C)CC2)cc1C(=O)N[C@H](C)c1cccc(-c2cnn(C)c2)c1` [Example 53, 2-Methyl-5-(4-methylpiperazin-1-yl)-N-[(1R)-1-[3-(1-methylpyrazol-4-yl)phenyl]ethyl]benzamide], the “% Cell Viability” value in series [1] (setting [2]) was 82.4%. Further, the concentration for half-maximal inhibition (IC50) on SARS-CoV-2 PLpro (setting [3]) is under 2 µM.

For the compound `Cc1ccc(N2CCN(CCO)CC2)cc1C(=O)N[C@H](C)c1cccc(-c2cnn(C)c2)c1` [Example 112, 5-[4-(2-Hydroxyethyl)piperazin-1-yl]-2-methyl-N-[(1R)-1-[3-(1-methylpyrazol-4-yl)phenyl]ethyl]benzamide], in series [1] (setting [2]), the “% Cell Viability” value was 41.0%. Moreover, the IC50 at SARS-CoV-2 PLpro (setting [3]) is under 2 µM.

Regarding `Cc1ccc(N2CCN(C)CC2)cc1C(=O)N[C@H](C)c1cncc(-c2cnn(C)c2)c1` [Example 224, 2-Methyl-5-(4-methylpiperazin-1-yl)-N-[(1R)-1-[5-(1-methylpyrazol-4-yl)-3-pyridyl]ethyl]benzamide], in series [1] (setting [2]), the “% Cell Viability” value was 105.0%. Also, the IC50 on SARS-CoV-2 PLpro (setting [3]) is under 5 µM.

In the case of `COc1ccc([C@@H](C)NC(=O)c2cc(N3C[C@H]4C[C@@H]3CN4C)ccc2C)cc1-c1csc(C(=O)N(C)C)c1` [Example 286, 4-[2-Methoxy-5-[(1R)-1-[[2-methyl-5-[(1R,4R)-5-methyl-2,5-diazabicyclo[2.2.1]heptan-2-yl]benzoyl]amino]ethyl]phenyl]-N,N-dimethyl-thiophene-2-carboxamide], the “% Cell Viability” value in series [1] (setting [2]) was determined as 50.3%. Also, on SARS-CoV-2 PLpro (setting [3]), the 50% inhibitory concentration (IC50) was under 2 µM.

As for `Cc1ccc(N2C[C@H]3C[C@@H]2CN3C)cc1C(=O)N[C@H](C)c1cccc2c1OCO2` [Example 122, N-[(1R)-1-(1,3-benzodioxol-4-yl)ethyl]-2-methyl-5-[(1R,4R)-5-methyl-2,5-diazabicyclo[2.2.1]heptan-2-yl]benzamide], the “% Cell Viability” value in series [1] (setting [2]) was found to be 95.4%. The IC50 on SARS-CoV-2 PLpro (setting [3]) was under 5 µM.

As for `Cc1ccc(N2CC3(CN(CCO)C3)C2)cc1C(=O)N[C@H](C)c1cccc2ccccc12` [Example 20, 5-[6-(2-Hydroxyethyl)-2,6-diazaspiro[3.3]heptan-2-yl]-2-methyl-N-[(1R)-1-(1-naphthyl)ethyl]benzamide], in series [1] (setting [2]), the “% Cell Viability” value stood at 94.3%. Besides, the IC50 at SARS-CoV-2 PLpro (setting [3]) is under 5 µM.

As for `COc1ccc([C@@H](C)NC(=O)c2cc(N3CCN(C)CC3)ccc2C)cc1-c1ccc(=O)n(C)c1` [Example 210, N-[(1R)-1-[4-Methoxy-3-(1-methyl-6-oxo-3-pyridyl)phenyl]ethyl]-2-methyl-5-(4-methylpiperazin-1-yl)benzamide], the “% Cell Viability” value in series [1] (setting [2]) was 64.0%. For the same compound, the IC50 on SARS-CoV-2 PLpro (setting [3]) is under 5 µM.

Regarding `Cc1ccc(N2CCN(C)CC2)c(C)c1C(=O)N[C@H](C)c1cccc2ccccc12` [Example 124, 2,6-Dimethyl-3-(4-methylpiperazin-1-yl)-N-[(1R)-1-(1-naphthyl)ethyl]benzamide], the “% Cell Viability” value in series [1] (setting [2]) was 37.4%. Further, the IC50 on SARS-CoV-2 PLpro (setting [3]) was under 2 µM.

As for `C[C@@H](NC(=O)c1cccc(C2CCNCC2)c1)c1cccc2ccccc12` [Example 6, N-[(1R)-1-(1-Naphthyl)ethyl]-3-(4-piperidyl)benzamide Hydrochloride Salt], the “% Cell Viability” value in series [1] (setting [2]) is 0.6%. Moreover, the IC50 on SARS-CoV-2 PLpro (setting [3]) was under 20 µM.

`Cc1ccc(N2CCN(C)CC2)cc1C(=O)N[C@H](C)c1cccc(F)c1` [Example 25, N-[(1R)-1-(3-Fluorophenyl)ethyl]-2-methyl-5-(4-methylpiperazin-1-yl)benzamide]: the “% Cell Viability” value in series [1] (setting [2]) was 95.2%. For the same compound, the IC50 on SARS-CoV-2 PLpro (setting [3]) was under 20 µM.

With `COc1cc(-c2cn(C)nc2C)cc([C@@H](C)NC(=O)c2cc(N3CCCNCC3)ccc2C)c1` [Example 265, 5-(1,4-Diazepan-1-yl)-N-[(1R)-1-[3-(1,3-dimethylpyrazol-4-yl)-5-methoxy-phenyl]ethyl]-2-methyl-benzamide], in series [1] (setting [2]), the “% Cell Viability” value is on record as 40.7%. In addition, the IC50 at SARS-CoV-2 PLpro (setting [3]) is under 2 µM.

Regarding `COc1ccc([C@@H](C)NC(=O)c2cc(N3CCN(C)CC3)ccc2C)cc1C1CCN(CCC(=O)O)CC1` [Example 238, 3-[4-[2-Methoxy-5-[(1R)-1-[[2-methyl-5-(4-methylpiperazin-1-yl)benzoyl]amino]ethyl]phenyl]-1-piperidyl]propanoic Acid], the “% Cell Viability” value in series [1] (setting [2]) amounted to 119.7%. In addition, on SARS-CoV-2 PLpro (setting [3]), the IC50 was under 10 µM.

On to `Cc1nnc(-c2cccc([C@@H](C)NC(=O)c3cc(N4CCN(C)CC4)ccc3C)c2)s1` [Example 39, 2-Methyl-5-(4-methylpiperazin-1-yl)-N-[(1R)-1-[3-(5-methyl-1,3,4-thiadiazol-2-yl)phenyl]ethyl]benzamide], for which, in series [1] (setting [2]), the “% Cell Viability” value was 90.5%. The IC50 at SARS-CoV-2 PLpro (setting [3]) was under 2 µM.

With `C[C@@H]1CN(c2ccc(Cl)c(C(=O)N[C@H](C)c3cccc4ccccc34)c2)C[C@H](C)N1` [Example 133, 2-Chloro-5-[(3S,5R)-3,5-dimethylpiperazin-1-yl]-N-[(1R)-1-(1-naphthyl)ethyl]benzamide], the “% Cell Viability” value in series [1] (setting [2]) is reported as 0.1%. Besides, at SARS-CoV-2 PLpro (setting [3]), the IC50 is under 5 µM.

As to `Cc1ccc(N2CCN(C)CC2)cc1C(=O)N[C@H](C)c1cccc(-c2ccc(C(=O)O)cc2)c1` [Example 41], the “% Cell Viability” value in series [1] (setting [2]) is listed as 110.1%. Also, the IC50 on SARS-CoV-2 PLpro (setting [3]) was under 5 µM.

In the case of `COc1ccc([C@@H](C)NC(=O)c2cc(N3CCN(C)CC3)ccc2C)cc1OC` [Example 23, N-[(1R)-1-(3,4-Dimethoxyphenyl)ethyl]-2-methyl-5-(4-methylpiperazin-1-yl)benzamide], the “% Cell Viability” value in series [1] (setting [2]) is on record as 87.3%. Further, the IC50 on SARS-CoV-2 PLpro (setting [3]) was under 2 µM.
